# Experiments:
# collagen-1 [1] = assay: Collagen-1 expression in left ventricle homogenates (western blot), CoPP and pNaKtide study; type: in vivo, mouse; conditions: LV homogenates; PNx + CoPP 5 mg/kg BW ip; p<0.01 vs PNx
# Procedure: (§1) Western Blotting Analysis: Cardiac (left ventricle) tissue samples and cardiac fibroblast homogenates were prepared and analyzed as was previously described for collagen-1 and other proteins. Assessment of protein carbonylation and activation of c-Src and ERK1/2 was performed as was described previously. Multiple exposures were analyzed to assure that the signals were within the linear range of the film. The signal density was determined using NIH ImageJ 1.48v software. Polyclonal antibody against type I collagen was from Southern Biotech (Birmingham, Ala.). Polyclonal anti-Src [pY418] phosphospecific antibody was from Invitrogen (Camarillo, Calif.). Monoclonal antibody against total c-Src was from Santa Cruz (Santa Cruz, Calif.). 2,4-dinitrophenylhydrazine (DNPH) and antibody against 2,4-dinitrophenyl (DNP) hydrazone derivatives were from Sigma-Aldrich.
# [2] = system: PNx-induced cardiomyopathy, C57BL/6 mice; assay: Transthoracic echocardiography, PNx mice (effects of CoPP and pNaKtide on PNx-induced cardiomyopathy); type: in vivo, mouse; conditions: PNX + CoPP (5 mg/kg BW ip), n = 15, mean ± SE
# Procedure: Experimental designs: Male C57BL/6 10-12 weeks were purchased from Hill Top Laboratories and housed in pathogen free animal facility in designated rooms equipped with cages that supply purified air under a 12 hour light/dark cycle. Food and water were supplied ad libitum. Animal protocol was approved by the Marshall University Institutional Animal Care and Use Committee. The number of animals in each group was determined by Power analysis using the following assumptions derived from a previous study with mice, with variance of 0.2 within the groups, power of 0.80, and alpha error of 0.05. Effects of CoPP and […] on PNx-induced cardiomyopathy: Cobalt protoporphyrin (CoPP, Frontier Scientific, Logan, Utah) was used to induct HO-1 expression and […] was used to block the Na/K-ATPase signaling function. […] Transthoracic Echocardiography: Transthoracic echocardiography was performed 24 hours before sacrifice. […] Mice in supine position were placed on a heating pad to keep the body temperature at 37° C. Body core temperature and ECG for physiological monitoring were obtained and manipulated by using a Visualsonics Mouse Handling Table (11436) and a rectal thermometer. Echocardiographic images were captured using MS400: 18-38 MHz operating frequency MicroScan transducer attached to a Vevo 1100 Imaging System (FUJIFILM VisualSonics Inc.). Warmed echo gel was placed between the probe and shaved chest. B-mode and M-mode images of the heart were obtained from parasternal long axis and short axis. PW Doppler and Color Doppler were obtained from basal short axis. The average values were calculated from at least four consecutive cardiac cycles. Left-ventricular end-diastolic area (EDA), end-systolic area (ESA), as well as main pulmonary artery diameter was measured from B-mode. End-diastolic diameters (EDD), end-systolic diameters (ESD), as well as anterior and posterior wall thickness (AWT & PWT) were captured from M-mode. Isovolumic contraction and relaxation time (IVCT & IVRT), ejection time (ET), as well as pulmonary velocity time integral (VTI) were obtained from PW and color Doppler.
# protein carbonylation [3] = assay: Protein carbonylation in left ventricle homogenates, CoPP and pNaKtide study; type: in vivo, mouse; conditions: PNx + CoPP 5 mg/kg BW ip; p<0.01 vs PNx
# Procedure: as §1
# HO-1 [4] = assay: HO-1 expression in primary cardiac fibroblasts; type: cell-based, mouse; conditions: 24 h
# Procedure: as §1
# (§2) Experimental design for in vitro experiment: C57BL/6 mouse primary cardiac fibroblast cells (purchased from Cell Biologics, Inc., Chicago, Ill.) were resuspended in complete fibroblast medium with supplements and 10% FBS (Cell Biologics, Inc.). The cultures were maintained at 37° C. in a 5% CO2 incubator and the medium was changed after 48 h and every 2-3 days thereafter. Cardiac fibroblast cells (passage 3-4) were grown until over confluent and were serum-starved (with 1% FBS) overnight before being used for the experiments. […]
# ERK1/2 [5] = assay: ERK1/2 activation (phosphor-ERK/total ERK) in primary cardiac fibroblasts; type: cell-based, mouse
# Procedure: as §1, §2
# ERK1/2 [6] = assay: ERK1/2 activation in left ventricle homogenates, CoPP and pNaKtide study; type: in vivo, mouse; conditions: PNx + CoPP 5 mg/kg BW ip, 4 weeks after PNx; p<0.01 vs PNx
# Procedure: as §1
# c-Src [7] = assay: c-Src activation (pY418 c-Src/total c-Src) in primary cardiac fibroblasts; type: cell-based, mouse
# Procedure: as §1, §2
# TBARS = assay: Thiobarbituric acid reactive substances (TBARS) in treated PNx mice; type: in vivo, mouse; conditions: PNx + CoPP 5 mg/kg BW ip
# c-Src [8] = assay: c-Src activation in left ventricle homogenates, CoPP and pNaKtide study; type: in vivo, mouse; conditions: PNx + CoPP 5 mg/kg BW ip, 4 weeks after PNx; p<0.01 vs PNx
# Procedure: as §1
# protein carbonylation [9] = assay: Protein carbonylation in primary cardiac fibroblasts; type: cell-based, mouse
# Procedure: as §1, §2
# collagen-1 [10] = type: cell-based, mouse
# Procedure: as §1
# Experimental design for in vitro experiment: C57BL/6 mouse primary cardiac fibroblast cells (purchased from Cell Biologics, Inc., Chicago, Ill.) were resuspended in complete fibroblast medium with supplements and 10% FBS (Cell Biologics, Inc.). The cultures were maintained at 37° C. in a 5% CO2 incubator and the medium was changed after 48 h and every 2-3 days thereafter. Cardiac fibroblast cells (passage 3-4) were grown until over confluent and were serum-starved (with 1% FBS) overnight before being used for the experiments. Cells were treated with or without TCB (100 nM) to determine procollagen-1 and HO-1 expression (24 h treatment), and c-Src activation and protein carbonylation (1 h treatment).
# [11] = system: PNx-induced cardiac fibrosis; assay: Cardiac fibrosis by Sirius Red/Fast Green staining, CoPP and pNaKtide study; type: in vivo, mouse; conditions: PNx + CoPP 5 mg/kg BW ip; p<0.01 vs. PNx
# Procedure: Effects of CoPP and […] on PNx-induced cardiomyopathy: Cobalt protoporphyrin (CoPP, Frontier Scientific, Logan, Utah) was used to induct HO-1 expression and […] was used to block the Na/K-ATPase signaling function. […] Sirius Red/Fast Green staining: Histology staining for collagen fiber was performed on tissues harvested with Sirius Red/Fast Green Collagen Staining solutions (Sigma-Aldrich) according to the manufacturer's protocol. Tissues preparation, fixation, and data analysis were conducted as previously described.
# PNx mice [12] = assay: Heart weight/body weight ratio, CoPP and pNaKtide study; type: in vivo, mouse; conditions: PNx + CoPP 5 mg/kg BW ip
# Procedure: Nephrectomy Mouse Model: The PNx model included two-step surgeries. […] Step-two surgery was operated 7 days later, in which the right kidney was removed. For sham surgery, the two-step surgeries were performed in the same way as in the PNx group, without ligation of left kidney and removal of right kidney.
# CoPP injections were given 5 days prior to, and on the day of, surgery, as well as every 5 days thereafter until sacrificing.
# HO-1 [13] = assay: HO-1 expression in left ventricle homogenates (western blot), CoPP and pNaKtide study; type: in vivo, mouse; conditions: CoPP 5 mg/kg BW ip
# Procedure: as §1
# PNx mice [14] = assay: Renal function: plasma cystatin C, creatinine and BUN, CoPP and pNaKtide study; type: in vivo, mouse; conditions: PNx + CoPP 5 mg/kg BW ip
# Procedure: Measurement of plasma cystatin C, creatinine and blood urea nitrogen (BUN): Mouse cystatin C ELISA kit and mouse creatinine kit were obtained from Crystal Chem. Inc. (Downers Grove, Ill.). Mouse BUN ELISA kit was obtained from MyBioSource Inc (San Diego, Calif.). The measurements were performed following manufacturers' instructions. Each sample was tested in duplicate.
# [15] = CoPP 5 μM, 24 h pre-treatment, TCB 100 nM 1 h
# [16] = TCB 100 nM, 1 h, cardiac fibroblasts
smiles,measurement,setting,value
"C=CC1=C(C)c2cc3[n-]c(cc4nc(cc5[n-]c(cc1n2)c(C)c5CCC(=O)[O-])C(CCC(=O)[O-])=C4C)c(C)c3C=C.[Co+2].[H+].[H+] [CoPP, cobalt protoporphyrin]",PNx-induced increases in cardiac collagen-1 expression,collagen-1 [1],reduced
same,"AWT, anterior wall thickness",[2],0.65 ± 0.01^$$ mm
same,"CO, cardiac output",[2],10.5 ± 0.3 mL/min
same,"EDA, end diastolic area",[2],27.2 ± 0.6 mm^2
same,"EDD, end diastolic dimension",[2],4.4 ± 0.1 mm
same,"EF, ejection fraction",[2],60.0 ± 2.9%
same,"ESA, end systolic area",[2],19.0 ± 0.1 mm^2
same,"ESD, end systolic dimension",[2],3.2 ± 0.1 mm
same,"ET, ejection time",[2],44 ± 1.0 ms
same,"FS, fractional shortening",[2],26.8 ± 1.7%
same,"HR, heart rate",[2],453 ± 11 beat/min
same,"IVCT + IVRT, isovolumic contraction time + isovolumic relaxation time",[2],21 ± 0.7^$$ msec
same,"LVMI, left ventricle mass index",[2],4.0 ± 0.1^$$
same,"PWT, posterior wall thickness",[2],0.59 ± 0.02^$$ mm
same,"PaD, pulmonary artery dimension",[2],1.0 ± 0.02 mm
same,"PaVTI, pulmonary artery Velocity time integral",[2],29.9 ± 0.5^$
same,PNx-induced protein carbonylation in LV homogenates,protein carbonylation [3],reduced
same,HO-1 induction,"HO-1 [4]; CoPP 5 μM, compared with TCB",considerably greater
same,TCB induced activation of ERK1/2,ERK1/2 [5]; [15],attenuated
same,activation of ERK1/2 in LV homogenates,ERK1/2 [6],attenuated
same,TCB induced activation of c-Src,c-Src [7]; [15],attenuated
same,TBARS,TBARS,consistent with the carbonylation data
same,activation of c-Src in LV homogenates,c-Src [8],attenuated
same,TCB induced protein carbonylation,protein carbonylation [9]; [15],attenuated
same,collagen-1 expression at baseline,"collagen-1 [10]; CoPP 5 μM, 24 h, no TCB, C57BL/6 mouse primary cardiac fibroblasts",did not significantly affect
same,TCB induced increases in collagen-1 expression,"collagen-1 [10]; CoPP 5 μM, 24 h pre-treatment, TCB 100 nM 24 h, p<0.01 vs TCB alone",significantly ameliorated
same,"PNx-induced cardiac fibrosis, Sirius Red/Fast Green staining",[11],significantly attenuated
same,increase in heart weight/body weight ratio with PNx,PNx mice [12],not
same,HO-1 expression in the LV homogenates,HO-1 [13],induced HO-1 expression most profoundly
same,"renal function as assessed by plasma cystatin C, creatinine, and BUN",PNx mice [14],neither CoPP nor pNaKtide effected significant changes
"C[C@]12CC[C@H](O)C[C@@]1(O)CC[C@@H]1[C@@H]2CC[C@]2(C)[C@@H](c3ccc(=O)oc3)CC[C@]12O [TCB, telecinobufagin]",HO-1 expression,HO-1 [4]; TCB 100 nM,increased
same,activation of ERK1/2,ERK1/2 [5]; [16],induced activation
same,activation of c-Src,c-Src [7]; [16],induced activation
same,protein carbonylation,protein carbonylation [9]; [16],induced activation
same,type I collagen (collagen-1) expression,"collagen-1 [10]; TCB 100 nM, 24 h, vs control, C57BL/6 mouse primary cardiac fibroblasts, p<0.01",induced increases
